In one test the target is T1, T4 Polynucleotide kinase (Enterobacteria phage T4, UniProt P06855).
T1 construct: purchased Takara (Kyoto, Japan)
Put plainly: T4 polynucleotide kinase assay. Format: biochemical. The text has this:
(§1) Pol α was purified from calf thymus by immuno-affinity column chromatography as described by Tamai et al.. Recombinant rat pol β was purified from E. coli JMpβ5 as described by Date et al.. The human pol γ catalytic gene was cloned into pFastBac. Histidine-tagged enzyme was expressed using the BAC-TO-BAC HT Baculovirus Expression System according to the supplier's manual (LIFE TECHNOLOGIES, MD, USA) and purified using ProBoundresin (Invitrogen Japan, Tokyo, Japan). Human pols δ and ε were purified by the nuclear fractionation of human peripheral blood cancer cells (Molt-4) using the second subunit of pols δ and ε-conjugated affinity column chromatography, respectively. Recombinant human pols η and ι tagged with His6 at their C-terminal were expressed in SF9 insect cells using the baculovirus expression system, and were purified as described previously. A truncated form of pol κ (i.e., hDINB1DC) with 6 x His-tags attached at the C-terminal was overproduced using the BAC-to-BAC Baculovirus Expression System kit (GIBCO BRL, MD, USA) and purified as described previously. […]
The primase activity of calf pol α, the activities of T7 RNA polymerase, T4 polynucleotide kinase and bovine DNase I were measured in standard assays according to the manufacturer's specifications as described by Tamiya-Koizumi et al., Nakayama et al., Soltis et al., and Lu and Sakaguchi, respectively.

The target of the next test is T2, Human DNA polymerase δ (Homo sapiens, UniProt P28340).
T2 construct: Human pols δ and ε were purified by the nuclear fractionation of human peripheral blood cancer cells (Molt-4); endogenous in cells; host or cells: Molt-4
T2 sequence (P28340 1-1107): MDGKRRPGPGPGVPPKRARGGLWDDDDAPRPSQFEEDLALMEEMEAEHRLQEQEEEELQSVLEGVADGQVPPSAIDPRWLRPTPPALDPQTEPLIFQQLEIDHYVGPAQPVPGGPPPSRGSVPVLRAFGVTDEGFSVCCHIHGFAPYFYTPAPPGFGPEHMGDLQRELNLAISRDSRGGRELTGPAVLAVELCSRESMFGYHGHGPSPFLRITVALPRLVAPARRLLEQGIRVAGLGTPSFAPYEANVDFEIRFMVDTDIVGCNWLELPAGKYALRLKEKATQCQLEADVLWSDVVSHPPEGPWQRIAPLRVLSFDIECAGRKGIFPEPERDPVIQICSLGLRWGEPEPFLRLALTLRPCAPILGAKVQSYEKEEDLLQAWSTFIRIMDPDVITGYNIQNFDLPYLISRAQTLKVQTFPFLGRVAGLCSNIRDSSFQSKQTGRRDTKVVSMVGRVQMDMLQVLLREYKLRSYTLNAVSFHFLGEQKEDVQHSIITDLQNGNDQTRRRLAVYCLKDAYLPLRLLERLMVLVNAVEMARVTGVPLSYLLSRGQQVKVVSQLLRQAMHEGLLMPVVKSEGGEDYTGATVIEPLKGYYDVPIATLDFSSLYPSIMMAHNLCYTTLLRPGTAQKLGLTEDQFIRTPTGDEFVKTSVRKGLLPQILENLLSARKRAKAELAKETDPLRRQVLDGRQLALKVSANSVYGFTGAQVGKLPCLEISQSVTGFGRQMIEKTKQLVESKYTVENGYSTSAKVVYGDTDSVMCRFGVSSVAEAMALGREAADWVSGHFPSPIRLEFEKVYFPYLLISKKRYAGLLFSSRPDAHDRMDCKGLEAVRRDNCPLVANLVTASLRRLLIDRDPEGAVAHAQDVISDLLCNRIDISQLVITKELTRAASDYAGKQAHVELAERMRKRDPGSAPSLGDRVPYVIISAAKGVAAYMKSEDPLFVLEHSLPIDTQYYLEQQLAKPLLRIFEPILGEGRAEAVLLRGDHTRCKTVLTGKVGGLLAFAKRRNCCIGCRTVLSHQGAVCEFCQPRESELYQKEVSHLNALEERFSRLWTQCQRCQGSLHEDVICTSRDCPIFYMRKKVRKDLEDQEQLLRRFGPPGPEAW
Put plainly: DNA polymerase assay, human pol δ. The format is biochemical.
From the text: as §1
For pols, poly(dA)/oligo(dT)12-18 (A/T = 2/1) and dTTP were used as the DNA template-primer and nucleotide (i.e., dNTP) substrate, respectively. […] Activity without the inhibitor was considered 100%, and the remaining activity at each concentration of the inhibitor was determined relative to this value. […]

We go through one compound from PMC6253949, “The Inhibitory Action of Kohamaic Acid A Derivatives on Mammalian DNA Polymerase β” (Molecules, 2008).

Some results are limits rather than exact numbers.

T1 sequence (P06855 whole entry): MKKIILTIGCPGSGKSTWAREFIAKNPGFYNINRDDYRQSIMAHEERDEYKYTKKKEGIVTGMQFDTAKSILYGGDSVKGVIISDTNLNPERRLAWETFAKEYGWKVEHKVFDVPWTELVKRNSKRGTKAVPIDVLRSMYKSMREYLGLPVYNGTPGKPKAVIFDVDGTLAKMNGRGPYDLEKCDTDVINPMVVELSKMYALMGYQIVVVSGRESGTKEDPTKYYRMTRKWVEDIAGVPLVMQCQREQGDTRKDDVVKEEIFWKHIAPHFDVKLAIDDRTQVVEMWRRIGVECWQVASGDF

For `CC1=CC[C@H]2C(C)(C)CCC[C@]2(C)[C@H]1CCCCCCCCCCCCCCCCC(=O)O` (relative stereo) [compound 11, (1S*,4aS*,8aS*)-17-(1,4,4a,5,6,7,8,8a-octahydro-2,5,5,8a-tetramethylnaphthalen-1-yl)heptadecanoic acid], the IC50 was > 200 µM at T4 Polynucleotide kinase and 4.89 ± 0.24 µM at Human DNA polymerase δ.
